# Data published in patent publication EP0812835B1, “OPTICALLY ACTIVE THIAZOLIDINONE DERIVATIVES” (SANKYO COMPANY LIMITED, priority 1995, dated 1996).
# Marks after values point to notes of the source that are not given here.
# How the values were obtained:
# Collateral Vessel [1] = experiment: Collateral vessel dilating action by intravenous administration (Collateral Index, carotid artery occlusion); format: in vivo, Beagle dogs (male); conditions: dose of 0.3 mg/kg, intravenous (inguinal vein), anesthetized dogs
# Description: Collateral Vessel Dilating Action by Intravenous Administration
# Beagle dogs (male) weighing 9 to 13 kg were anesthetized by intravenous injection of pentobarbital at a dose of 30 mg/kg and tested under artificial respiration. In order to measure the pressure of the left carotid artery, a polyethylene cannula (Atom intravenous catheter 2F) was inserted […] into one branch of the left thyroid artery. The left carotid artery upstream from this pressure measurement site was occluded for 1 minute with an arterial clamp, and the pressure immediately before occlusion (P) and the decrease in peripheral pressure (ΔP) were measured. Next, the test drug was administered through another polyethylene cannula inserted into the inguinal vein. The left carotid artery was occluded for 1 minute after 5, 15, 30, 45 and 60 minutes, and pressure immediately before occlusion (Pa) and the decrease in peripheral pressure (ΔPa) each time were measured. Collateral vessel dilating effect (Collateral Index = CI) of the test drug was determined according to the following formula: CI = 100 - (ΔPa/Pa) x 100/(ΔP/P) [formula]
# Collateral Vessel [2] = experiment: Collateral vessel dilating action by administration into the portal vein (first-pass effect test); format: in vivo, Beagle dogs (male); conditions: administered into the portal vein, compared with intravenous administration, 60 minutes
# Description: Collateral Vessel Dilating Action by Administration into the Portal Vein
# While test specimens were prepared according to the method of Test example 1, the animal was laparotomized along the abdominal median line, and a branch of the mesenteric vein was removed and incised so as to administer the test drug into the portal vein. A polyethylene cannula (Atom intravenous catheter 2F) was inserted antegrade into this vein to reside in the portal vein, and then the test drug was administered through it. In order to test the first-pass effect of the test drug, it was first administered intravenously (inguinal vein) to determine collateral vessel dilating action of the drug for 60 minutes. The same test drug was then administered into the portal vein 2 or 3 hours later to determine collateral vessel dilating action for 60 minutes, and those actions were compared with each other.
# aspirin-induced ulcer = experiment: Inhibition of aspirin-induced ulcer; format: in vivo, Donryu strain male rats; conditions: for Inhibition rate (%): 1 hour before aspirin, area of ulceration vs control group
# Description: Inhibition of aspirin-induced ulcer
# As a test animal, 10 Donryu strain male rats each weighing 200 g-250 g were used in one group. The rats were fasted before the experiment for 24 hours but they could freely drink water. The test compounds were suspended in 0.5% carboxymethyl cellulose (CMC) solution. Meanwhile, for a control group, 0.5% CMC solution was used.
# The test compound was orally administered (0.1 ml/100 g body weight) to the rats and an aspirin solution (150 mg/ml: suspended in 0.5% CMC solution) was orally administered (0.1 ml/100 g body weight) to the rats 1 hour later. Four hours after the administration of the aspirin solution, the rats were sacrificed using carbon dioxide gas and the stomach of each rat was taken out. Into the stomachs were poured 10 ml of 1% formalin solution to allow the stomachs to expand, and the stomachs were immersed in 1% formalin solution in a beaker for about 15-20 minutes. Then, each stomach was cut along the greater curvature thereof and an area of the ulceration in the gastric mucosa was measured by means of an image analysis apparatus [Luzex-F: manufactured by Nireko Co., Ltd.]. The average value of the area of the ulceration of each group was calculated from the area of the ulceration of each rat and the inhibition rate was obtained by comparing the average value of the test group with that of the control group.
# [3] = Stability of compounds (storage, residual ratio by high pressure liquid chromatography); format: physicochemical; conditions: for storage stability: in words
# Description: About 2 mg of the test compound was accurately weighed and placed in a brown bottle. The bottle was left to stand at a dark place at room temperature (24-26°C) for 4 weeks and a residual ratio (%) of the test compound was measured by high pressure liquid chromatography (column: Inertsil ODS-3, eluting solvent: 10 mM (pH=7.0) phosphoric acid buffer/acetonitrile=80/20).
smiles,measurement,setting,value
"C[C@@H](CO[N+](=O)[O-])NC(=O)[C@@H]1CSC(=O)N1 [Example 1, (4R)-N-[(1S)-1-Methyl-2-nitroxyethyl]-2-oxothiazolidin-4-vl-carboxamide]",CI(60),Collateral Vessel [1],> 10
same,collateral vessel dilating action,Collateral Vessel [2],excellent collateral vessel dilating action
same,Inhibition rate (%),"aspirin-induced ulcer; 30 mg/kg orally, p<0.05",63.58*^) %
same,Inhibition rate (%),"aspirin-induced ulcer; 100 mg/kg orally, p<0.005",80.15**^) %
same,Inhibition rate (%),"aspirin-induced ulcer; 300 mg/kg orally, p<0.005",93.17**^) %
same,anti-ulcerative action,"aspirin-induced ulcer; result in words, summary of Table 4",excellent anti-ulcerative action
same,Residual ratio (%),"[3]; dark place at room temperature (24-26°C) for 4 weeks, brown bottle",101.2%
same,storage stability,"[3]; as compared with the 1:1 mixture of Example 1 and the (4R),(1R)-isomer",excellent storage stability
same,storage stability,"[3]; as compared with the (4R),(1R)-isomer",excellent storage stability
"CCC[C@@H](CO[N+](=O)[O-])NC(=O)[C@@H]1CSC(=O)N1 [Example 5, (4R)-N-[(1S)-1-Propyl-2-nitroxyethyl]-2-oxothiazolidin-4-yl-carboxamide]",CI(60),Collateral Vessel [1],> 10
"CCCC[C@@H](CO[N+](=O)[O-])NC(=O)[C@@H]1CSC(=O)N1 [Example 6, (4R)-N-[(1S)-1-Butyl-2-nitroxyethyl]-2-oxothiazolidin-4-yl-carboxamide]",CI(60),Collateral Vessel [1],> 10
"CC(C)C[C@@H](CO[N+](=O)[O-])NC(=O)[C@@H]1CSC(=O)N1 [Example 8, (4R)-N-[(1S)-1-Isobutyl-2-nitroxyethyl]-2-oxothiazolidin-4-yl-carboxamide]",CI(60),Collateral Vessel [1],> 10
